From ChEMBL document CHEMBL4665642, “Anticancer profile of newly synthesized BRAF inhibitors possess 5-(pyrimidin-4-yl)imidazo[2,1-b]thiazole scaffold” (Bioorg Med Chem, 2019)

What was measured:
[1] = test system: SK-MEL-28; experiment: Cytotoxicity against human SK-MEL-28 cells assessed as cell viability at 10 uM incubated for 48 hrs by sulforhodamine B assay relative to control; format: functional; details: read-out: Activity
[2] = test system: A-375; experiment: Cytotoxicity against human A-375 cells assessed as reduction in cell viability by MTT assay; format: functional, cell-based
[3] = test system: SNB-19; experiment: Cytotoxicity against human SNB-19 cells assessed as cell viability at 10 uM incubated for 48 hrs by sulforhodamine B assay relative to control; format: functional; details: read-out: Activity
[4] = test system: HCT-29; experiment: Cytotoxicity against human […] cells assessed as cell viability at 10 uM incubated for 48 hrs by sulforhodamine B assay relative to control; format: functional; details: read-out: Activity
[5] = test system: UACC-62; experiment: Cytotoxicity against human UACC-62 cells assessed as cell viability at 10 uM incubated for 48 hrs by sulforhodamine B assay relative to control; format: functional; details: read-out: Activity
[6] = target: Serine/threonine-protein kinase B-raf (Homo sapiens, UniProt P15056); experiment: Inhibition of human BRAF using MEK1 as substrate by […] assay
Chain of Serine/threonine-protein kinase B-raf (Homo sapiens, UniProt P15056) (P15056 whole entry): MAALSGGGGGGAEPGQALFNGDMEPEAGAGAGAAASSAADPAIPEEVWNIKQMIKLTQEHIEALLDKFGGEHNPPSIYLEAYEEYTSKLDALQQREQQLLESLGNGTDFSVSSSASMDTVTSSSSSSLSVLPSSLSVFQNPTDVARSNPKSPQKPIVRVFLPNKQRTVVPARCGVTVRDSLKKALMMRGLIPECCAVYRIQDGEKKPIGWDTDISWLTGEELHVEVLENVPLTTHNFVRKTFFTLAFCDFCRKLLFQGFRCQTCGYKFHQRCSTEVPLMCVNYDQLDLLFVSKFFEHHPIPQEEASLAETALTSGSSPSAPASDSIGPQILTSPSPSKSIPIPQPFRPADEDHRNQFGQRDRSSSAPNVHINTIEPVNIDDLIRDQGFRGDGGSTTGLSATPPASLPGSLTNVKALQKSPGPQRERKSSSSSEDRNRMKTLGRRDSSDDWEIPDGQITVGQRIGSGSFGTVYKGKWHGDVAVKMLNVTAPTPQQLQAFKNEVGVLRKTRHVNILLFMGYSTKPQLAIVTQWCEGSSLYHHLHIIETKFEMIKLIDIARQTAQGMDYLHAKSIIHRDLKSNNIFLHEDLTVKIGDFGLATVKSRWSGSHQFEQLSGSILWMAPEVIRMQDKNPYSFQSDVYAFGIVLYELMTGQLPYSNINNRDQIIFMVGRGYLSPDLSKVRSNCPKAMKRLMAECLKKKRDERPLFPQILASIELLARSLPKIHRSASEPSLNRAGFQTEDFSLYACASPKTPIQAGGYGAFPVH

[7] = test system: SN12C; experiment: Cytotoxicity against human SN12C cells assessed as cell viability at 10 uM incubated for 48 hrs by sulforhodamine B assay relative to control; format: functional; details: read-out: Activity
[8] = test system: OVCAR-4; experiment: Cytotoxicity against human OVCAR-4 cells assessed as cell viability at 10 uM incubated for 48 hrs by sulforhodamine B assay relative to control; format: functional; details: read-out: Activity
[9] = test system: PC-3; experiment: Cytotoxicity against human PC-3 cells assessed as cell viability at 10 uM incubated for 48 hrs by sulforhodamine B assay relative to control; format: functional; details: read-out: Activity
[10] = test system: MOLT-4; experiment: Cytotoxicity against human MOLT-4 cells assessed as cell viability at 10 uM incubated for 48 hrs by sulforhodamine B assay relative to control; format: functional; details: read-out: Activity
[11] = target: Serine/threonine-protein kinase B-raf (Homo sapiens, UniProt P15056, V600E); experiment: Inhibition of human BRAF V600E mutant using MEK1 as substrate by […] assay
Chain of Serine/threonine-protein kinase B-raf (Homo sapiens, UniProt P15056, V600E) (P15056 2-766 V600E limits assumed): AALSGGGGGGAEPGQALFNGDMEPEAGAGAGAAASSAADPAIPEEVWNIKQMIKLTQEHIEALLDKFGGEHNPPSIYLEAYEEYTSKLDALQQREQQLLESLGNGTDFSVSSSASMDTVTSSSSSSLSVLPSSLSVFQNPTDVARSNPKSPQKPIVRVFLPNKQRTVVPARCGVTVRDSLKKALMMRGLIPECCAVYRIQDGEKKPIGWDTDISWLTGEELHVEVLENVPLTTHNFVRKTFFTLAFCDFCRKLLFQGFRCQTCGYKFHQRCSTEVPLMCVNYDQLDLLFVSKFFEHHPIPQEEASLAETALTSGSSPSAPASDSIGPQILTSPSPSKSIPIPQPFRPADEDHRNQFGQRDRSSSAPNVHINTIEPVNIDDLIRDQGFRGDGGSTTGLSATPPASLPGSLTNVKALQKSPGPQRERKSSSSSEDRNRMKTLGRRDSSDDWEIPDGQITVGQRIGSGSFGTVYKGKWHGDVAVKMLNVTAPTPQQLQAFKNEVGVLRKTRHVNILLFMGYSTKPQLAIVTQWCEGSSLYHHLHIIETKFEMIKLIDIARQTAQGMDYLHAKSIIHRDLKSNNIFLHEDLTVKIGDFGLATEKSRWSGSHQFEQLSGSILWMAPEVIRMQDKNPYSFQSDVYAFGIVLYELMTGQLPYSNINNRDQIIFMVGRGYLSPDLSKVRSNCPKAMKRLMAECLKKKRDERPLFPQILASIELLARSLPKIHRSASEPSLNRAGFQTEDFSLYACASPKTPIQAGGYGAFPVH

[12] = test system: NCI-H522; experiment: Cytotoxicity against human NCI-H522 cells assessed as cell viability at 10 uM incubated for 48 hrs by sulforhodamine B assay relative to control; format: functional; details: read-out: Activity
[13] = test system: OVCAR-3; experiment: Cytotoxicity against human OVCAR-3 cells assessed as cell viability at 10 uM incubated for 48 hrs by sulforhodamine B assay relative to control; format: functional; details: read-out: Activity
[14] = test system: HOP-92; experiment: Cytotoxicity against human HOP-92 cells assessed as cell viability at 10 uM incubated for 48 hrs by sulforhodamine B assay relative to control; format: functional; details: read-out: Activity
[15] = test system: SK-MEL-28; experiment: Cytotoxicity against human SK-MEL-28 cells assessed as reduction in cell viability by MTT assay; format: functional, cell-based
[16] = test system: EKVX; experiment: Cytotoxicity against human EKVX cells assessed as cell viability at 10 uM incubated for 48 hrs by sulforhodamine B assay relative to control; format: functional; details: read-out: Activity
[17] = test system: RXF 393; experiment: Cytotoxicity against human RXF 393 cells assessed as cell viability at 10 uM incubated for 48 hrs by sulforhodamine B assay relative to control; format: functional; details: read-out: Activity
[18] = target: RAF proto-oncogene serine/threonine-protein kinase (Homo sapiens, UniProt P04049); experiment: Inhibition of human CRAF using MEK1 as substrate by [gamma-33P]-ATP assay
Chain of RAF proto-oncogene serine/threonine-protein kinase (P04049 whole entry): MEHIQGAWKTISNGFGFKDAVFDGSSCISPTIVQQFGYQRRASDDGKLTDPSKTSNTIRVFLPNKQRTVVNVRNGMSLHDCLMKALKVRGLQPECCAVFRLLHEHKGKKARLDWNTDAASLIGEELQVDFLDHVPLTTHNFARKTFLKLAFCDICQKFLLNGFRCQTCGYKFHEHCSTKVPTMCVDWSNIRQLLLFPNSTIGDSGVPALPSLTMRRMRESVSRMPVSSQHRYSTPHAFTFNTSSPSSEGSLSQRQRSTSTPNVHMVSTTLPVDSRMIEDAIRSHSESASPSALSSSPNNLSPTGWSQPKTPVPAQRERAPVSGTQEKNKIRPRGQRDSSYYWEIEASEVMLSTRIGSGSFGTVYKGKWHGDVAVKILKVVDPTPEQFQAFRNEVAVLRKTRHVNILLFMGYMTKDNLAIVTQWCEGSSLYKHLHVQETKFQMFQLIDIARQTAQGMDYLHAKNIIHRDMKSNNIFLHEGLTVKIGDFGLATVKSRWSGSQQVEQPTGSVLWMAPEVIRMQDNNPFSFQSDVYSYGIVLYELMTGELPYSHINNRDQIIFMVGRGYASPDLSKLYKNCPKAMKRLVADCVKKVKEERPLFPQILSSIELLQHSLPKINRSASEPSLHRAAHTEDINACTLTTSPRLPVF

[19] = test system: MCF7; experiment: Cytotoxicity against human MCF7 cells assessed as cell viability at 10 uM incubated for 48 hrs by sulforhodamine B assay relative to control; format: functional; details: read-out: Activity
[20] = test system: HCT-116; experiment: Cytotoxicity against human HCT-116 cells assessed as cell viability at 10 uM incubated for 48 hrs by sulforhodamine B assay relative to control; format: functional; details: read-out: Activity
[21] = test system: HOP-62; experiment: Cytotoxicity against human HOP-62 cells assessed as cell viability at 10 uM incubated for 48 hrs by sulforhodamine B assay relative to control; format: functional; details: read-out: Activity
[22] = test system: KM12; experiment: Cytotoxicity against human KM12 cells assessed as cell viability at 10 uM incubated for 48 hrs by sulforhodamine B assay relative to control; format: functional; details: read-out: Activity
[23] = test system: CAKI-1; experiment: Cytotoxicity against human CAKI-1 cells assessed as cell viability at 10 uM incubated for 48 hrs by sulforhodamine B assay relative to control; format: functional; details: read-out: Activity
[24] = test system: LOX IMVI; experiment: Cytotoxicity against human LOX IMVI cells assessed as cell viability at 10 uM incubated for 48 hrs by sulforhodamine B assay relative to control; format: functional; details: read-out: Activity
[25] = test system: L132; experiment: Cytotoxicity against human L132 cells assessed as reduction in cell viability by MTT assay; format: cell-based

Structure (SMILES) | viability at 10 µM [1] [%] | IC50 [2] [µM] | viability at 10 µM [3] [%] | viability at 10 µM [4] [%] | viability at 10 µM [5] [%] | viability at 10 µM [7] [%] | viability at 10 µM [8] [%] | viability at 10 µM [9] [%] | viability at 10 µM [10] [%] | viability at 10 µM [12] [%] | viability at 10 µM [13] [%] | viability at 10 µM [14] [%] | IC50 [15] [µM] | viability at 10 µM [16] [%] | viability at 10 µM [17] [%] | viability at 10 µM [19] [%] | viability at 10 µM [20] [%] | viability at 10 µM [21] [%] | viability at 10 µM [22] [%] | viability at 10 µM [23] [%] | further results
O=S(=O)(NCCCNc1nccc(-c2c(-c3cccc(F)c3)nc3sccn23)n1)c1ccc(Br)cc1 | 67 | 7.04 | 84.5 | 23.8 | 18.3 | 53.9 | 34.2 | 40.8 | 33.8 | 37.9 | 57.8 | 73.7 | 9.4 | 57.4 | 81.8 | 41.9 | 46.2 | 94.4 | 46.7 | 50.3 | IC50 [6]: 0.0229 µM; IC50 [11]: 0.0093 µM; IC50 [18]: 0.0186 µM; viability at 10 µM [24]: 40.2%
O=C(NCCNc1nccc(-c2c(-c3cccc(F)c3)nc3sccn23)n1)c1ccc(Cl)cc1 | 64.9 | 2.57 | 71.9 | 35.2 | 14.7 | 52.5 | 77.9 | 72.5 | 65.7 | 68.4 | 75.7 | 87.1 | 8.16 | 63.2 | 72.9 | 27.7 | 33 | 91.9 | 62.8 | 41.5 | IC50 [6]: 0.105 µM; IC50 [11]: 0.0272 µM; IC50 [18]: 0.12 µM; viability at 10 µM [24]: 43.4%
O=C(NCCNc1nccc(-c2c(-c3cccc(F)c3)nc3sccn23)n1)c1ccccc1 | 58.7 | 5.06 | 63.5 | 25.8 | 11.2 | 48.2 | 55.4 | 62.9 | 46.5 | 57.9 | 67.8 | 82.2 | 17 | 54.4 | 60.6 | 23.7 | 25.6 | 77.5 | 56.6 | 36.4 | IC50 [25]: 200 µM; IC50 [6]: 0.162 µM; IC50 [11]: 0.037 µM; IC50 [18]: 0.312 µM; viability at 10 µM [24]: 35.1%
Cc1ccc(S(=O)(=O)NCCCNc2nccc(-c3c(-c4cccc(F)c4)nc4sccn34)n2)cc1 | 106 | 8.38 | 92.2 | 37.3 | 47.8 | 70.5 | 66.2 | 67.7 | 53.5 | 70.8 | 89 | 112 | 9.5 | 78.1 | 80.3 | 69.4 | 49.6 | 101 | 67.3 | 46.9 | IC50 [6]: 0.182 µM; IC50 [11]: 0.089 µM; IC50 [18]: 0.143 µM; viability at 10 µM [24]: 38%
O=S(=O)(NCCNc1nccc(-c2c(-c3cccc(F)c3)nc3sccn23)n1)c1ccccc1 | 54.3 | 11 | 55.9 | 23.2 | 24.9 | 40.3 | 40 | 33.1 | 16.6 | 43.7 | 58.9 | 51.5 | 19 | 53.4 | 64.1 | 21.7 | 22.7 | 60.2 | 28.8 | 39.1 | viability at 10 µM [24]: 36.3%
O=S(=O)(NCCCNc1nccc(-c2c(-c3cccc(F)c3)nc3sccn23)n1)c1ccc(F)cc1 | 96.9 | 14.5 | 95.9 | 46.2 | 35.4 | 71.5 | 65.7 | 58.9 | 47.1 | 54 | 83.5 | 102 | > 20 | 80.4 | 85 | 70.1 | 59.4 | 101 | 62.7 | 57.8 | viability at 10 µM [24]: 56%
O=S(=O)(NCCCNc1nccc(-c2c(-c3cccc(F)c3)nc3sccn23)n1)c1ccccc1 | 83.4 | 6.6 | 93.5 | 32.9 | 26.8 | 58.2 | 54.8 | 53.5 | 37.1 | 47 | 74.9 | 80.2 | 6.85 | 65.4 | 84 | 50.8 | 56.7 | 98.9 | 62.1 | 56.4 | IC50 [25]: > 400 µM; viability at 10 µM [24]: 50.3%
O=S(=O)(NCCCNc1nccc(-c2c(-c3cccc(F)c3)nc3sccn23)n1)c1ccc(Cl)cc1 | 92.3 | 5.9 | 93 | 36.9 | 40.4 | 65.9 | 61.4 | 52 | 48.3 | 57.4 | 79.8 | 85.7 | 8.45 | 75.4 | 99.6 | 61.7 | 64 | 102 | 72.7 | 63 | IC50 [6]: 0.0496 µM; IC50 [11]: 0.0162 µM; IC50 [18]: 0.034 µM; viability at 10 µM [24]: 60.3%
O=S(=O)(NCCNc1nccc(-c2c(-c3cccc(F)c3)nc3sccn23)n1)c1ccc(C(F)(F)F)cc1 | 114 | 7.44 | 94.8 | 62.8 | 73.3 | 89.7 | 85.4 | 57 | 57.5 | 85 | 92.4 | 64 | 8.45 | 86.5 | 92.1 | 59.3 | 67.8 | 102 | 80.6 | 70.6 | IC50 [6]: 0.0852 µM; IC50 [11]: 0.0223 µM; IC50 [18]: 0.0884 µM; viability at 10 µM [24]: 88.9%
O=S(=O)(NCCCNc1nccc(-c2c(-c3cccc(F)c3)nc3sccn23)n1)c1cccc(F)c1 | 68.3 | 13.7 | 76.8 | 30.6 | 6.36 | 56.3 | 26.8 | 27.1 | 9.94 | 21.9 | 50.7 | 74.8 | 8.55 | 52.4 | 78.8 | 33.7 | 48 | 61.3 | 29.9 | 41.5 | viability at 10 µM [24]: 39%
